Results reported in US20120322060A1, “DIAGNOSIS AND MONITORING TREATMENT OF PSYCHIATRIC DISEASES WITH SPADIN AND RELATED METHODS” (CENTRE NATIONAL DE LE RECHERCHE SCIENTIFIQUE - CNRS -, priority 2011, published 2012).
“Also recorded” adds a separate entry of the source. No end group written: not given here.

Key:
rats = assay: Forced Swim Test (FST) in rats; type: in vivo, rat; conditions: acute i.p. 10^-5 M, 30 min before test
Experimental: Male Sprague-Dawley rats (Janvier, France), weighing 250-300 g were also used for the FST. Rats experienced a pretest session followed 24 h later by a test session. For both the pretest and the test sessions, conducted under low illumination (15 W), the animals were placed in a plastic cylindrical tank (50 cm high by 20 cm in diameter) filled with 40 cm deep water at 24° C. The pretest was carried out for 15 minutes and the test for 5 minutes in the same tank. The total period of immobility was analyzed during the last 4 min.

mice [1] = assay: Tail Suspension Test (TST); type: in vivo, mouse
Experimental: Mice were suspended by the tail. […] The immobility time was recorded during a 6 min test session.

[2] = in vivo
Experimental: Since spadin exerted efficient effects after i.p. or i.v. administration, we evaluated its ability to pass through the blood-brain barrier. ^125I-labelled spadin (1 nmol of spadin plus 2×10^6 cpm ^125I-spadin) was i.v. injected and animals were sacrificed 30 min following injection. The brains were rapidly removed and homogenized. The radioactivity recovered in the brain was acid-extracted, quantified and analyzed by HPLC. […] The concentration of spadin recovered into the brain was estimated to stand around 10 nM, a concentration that corresponds to the affinity of spadin for TREK-1 and sufficient to be active on TREK-1 channel activity. This value was also in the same range of the IC50 determined by electrophysiological measurements (FIG. 3C).

TREK-1 = target: T1, TREK-1 (Mus musculus, UniProt P97438); assay: Whole-cell patch-clamp on TREK-1 transfected COS-7 cells; type: cell-based; set-up: GFP; expressed in transfected cells; host or cells: COS-7 (DEAE-dextran transfection); conditions: after 90 sec of application
T1 sequence (P97438 1-426): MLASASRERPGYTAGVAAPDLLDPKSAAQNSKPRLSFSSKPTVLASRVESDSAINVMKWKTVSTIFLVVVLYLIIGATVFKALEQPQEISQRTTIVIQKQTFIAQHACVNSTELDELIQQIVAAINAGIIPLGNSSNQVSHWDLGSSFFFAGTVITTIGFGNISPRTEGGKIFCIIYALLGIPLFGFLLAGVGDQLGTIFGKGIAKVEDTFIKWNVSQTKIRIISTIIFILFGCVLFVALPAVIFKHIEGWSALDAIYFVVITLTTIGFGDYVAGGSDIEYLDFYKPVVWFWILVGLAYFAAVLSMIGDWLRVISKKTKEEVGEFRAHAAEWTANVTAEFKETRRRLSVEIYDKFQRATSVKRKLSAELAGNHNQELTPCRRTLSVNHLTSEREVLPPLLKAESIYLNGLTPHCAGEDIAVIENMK
Experimental: All electrophysiological experiments were done on COS-7 cells seeded at a density of 20,000 cells/35-mm dish 24 h before transfection. Cells were transfected by the classical DEAE-dextran method with TREK-1-GFP plasmids (0.1 μg/μL). Cells were visualized 48-72 h after transfection using fluorescence.
The whole-cell patch-clamp technique was used to evaluate TREK-1 potassium channel current by using a RK 400 patch-clamp amplifier (Axon Instruments, U.S.A.), as previously described. Currents were lowpass filtered at 3 kHz, digitized at 10 kHz using a 12-bit analog-to-digital converter. […] The bath solution contained (in mM): 150 NaCl, 5 KCl, 3 MgCl2, 1 CaCl2, and 10 HEPES, adjusted to pH 7.4 with NaOH; the patch pipette solution contained (in mM): 155 KCl, 3 MgCl2, 5 EGTA, and 10 HEPES, adjusted to pH 7.2 with KOH. Cells were clamped at −80 mV and voltage changes were either applied by ramp (from −100 to 50 mV, 1 s in duration) or by step (from −100 to 40 mV, 1.5 s in duration). Cells were continuously superfused with a microperfusion system. The pipette capacitance was not subtracted from total membrane capacitance and there was no leak substraction. All experiments were done at room temperature (21° C. to 22° C.) and in the presence of a cocktail of potassium channel inhibitors (K^+ blockers: 10 mM tetraethyl ammonium (TEA), 3 mM 4-aminopyridine (4-AP), 50 nM charybdotoxin, 10 μM glibenclamide, 100 nM apamin).
Pclamp software was used to analyze currents recorded in the whole-cell mode measured at 0 mV. Results are expressed as means±SD. To obtain the IC50 value for dose-dependent inhibition, experimental data were fitted with a standard sigmoidal function.

mice [3] = assay: Conditioned Suppression of Motility test (CMST); type: in vivo, mouse
Experimental: Mice were placed in a rectangular cage (20×20×27 cm) with a metallic grid floor, located in a sound-proof room illuminated by a 75 W bulb. There were 12 squares drawn on the floor for counting animal displacements. On the first day, the mouse was left in the test cage for 6 min and received 30 electric footshocks of 1.8 mA during 200 ms (one shock every 12 s.). On the second day, the mouse was again placed in the same cage without receiving electric footshocks (conditioned suppression group). Motility changes were observed by counting the number of squares crossed plus the number of climbing in 6 min. Each control group was treated exactly by the same way, except for the absence of the electric foot-shock. In this test, the mice learned to associate a conditioned stimulus (CS: test chamber) with an unconditioned stimulus (US: footshocks). After the pairing of CS and US, a robust associative memory of the CS-US was formed such that the CS alone could elicit a fear response (behavioral immobility or freezing).

mice [4] = assay: Porsolt Forced Swim Test (FST) in mice; type: in vivo, mouse; conditions: for reduced immobility time: acute, 30 min before test
Experimental: Mice (Janvier, France) were placed individually in cylinders (height: 30 cm, diameter: 15 cm) filled with 12 cm deep water (temperature: 22±1° C.) for 6 min. The total period of immobility was recorded during the last 4 min.

mice [5] = assay: Novelty-Suppressed Feeding test (NSF); type: in vivo, mouse; conditions: 4 days; spadin i.v. 10^-6 M, fluoxetine i.p. 3 mg/kg; 3 mg/kg
Experimental: NSF paradigm is a conflict test that elicits competing motivations: the drive to eat and the fear of venturing into the center of a bright arena. Latency to begin eating is used as an index of anxiety- and depression-like behavior. After 4 day treatment (saline or spadin, i.v.) and 24 hours food-deprivation, mice were presented with a food pellet placed in the center of a brightly plastic box (50×50×20 cm). Latency to begin eating was measured as previously described.

[6] = subchronic, 4 days, spadin i.v. 10^-6 M, fluoxetine 3 mg/kg

## APLPRWSGPIGVSWGLR [spadin]
rats
  immobility time versus saline: significantly reduced immobility time; also recorded: shorter time of immobility
Mice [1]; acute, i.v., 10^-6 M, 30 min before test
  immobility times versus saline: significantly reduced immobility times
Mice [1]; injection in kcnk2-/- mice
  effect in TST: did not induce any change
Mice [1]; [6]
  reduction of time spent immobile: 28.1%
[2]
  amount of spadin recovered in the brain: Identical amounts
TREK-1
  inhibition of current increase induced by 10 μM aa: inhibited the aa-induced increase
Mice [3]; i.v., 10^-6 M
  reduction of conditioned suppression of motility: 84.4%
Mice [3]; injection in kcnk2-/- mice
  effect in CMST: did not induce any change
Mice [3]; shocked group, acute spadin
  motility (squares crossed plus climbings): 78±7 counts
Mice [4]; i.c.v., 10^-7 M
  reduced immobility time: 66.8%
Mice [4]; i.p., 10^-8 M
  reduced immobility time: 55.30%
Mice [4]; i.v., 10^-6 M
  reduced immobility time: 62.9%
Mice [4]; chronic, 15 days, spadin 10^-6 M, fluoxetine 1 mg/kg
  reduction of time of immobility: around 30%
Mice [4]; injection in kcnk2-/- mice
  effect in FST: did not induce any change
Mice [4]; [6]
  reduction of time spent immobile: 43.2%
Mice [5]
  latency to feed versus saline: significant decrease in latency to feed; also recorded: significantly reduced the latency to feed
